According to patent US12024506B2, “Compounds” (Oxford University Innovation Limited, priority 2018, dated 2024):

target: T1, GST-human KRas166 (G12V) GPPNHP (Homo sapiens, UniProt P01116, G12V); assay: KRas small-molecule screening by SPR (Biacore T200); assay type: binding; details: compound 100 uM, 5% DMSO buffer; immobilised GST-KRas166 (G12V) GPPNHP
T1 construct: made in house; host or cells: E. coli C41(DE3)
Experimental: For SPR assays pGEX-KRAS(G12V) plasmid was transformed into E. coli C41(DE3). Bacterial cells were cultured at 37° C. to an OD600 of 0.6 and induced with IPTG (final 0.1 mM) at 18° C. over night. The GST fusion proteins were extracted from bacteria pellets after cell disruption in 140 mM NaCl, 2.7 mM KCl, 10 mM NaH2PO4, 1.8 mM KH2PO4, 1 mM EDTA, 2 mM MgCl2 pH 7.4 and purified by glutathione-sepharose column chromatography (GE Healthcare), eluting with 50 mM Tris-HCl pH8.0, 10 mM reduced glutathione, 1 mM DTT, 2 mM MgCl2. The eluted proteins were dialysed against 50 mM Tris-HCl pH8.0, 1 mM DTT, 2 mM MgCl2 and concentrated to 10 mg/ml using a Biomax-30 ULTRAFREE-15 centrifugal filter device (Millipore). Purified KRAS protein was loaded with GPPNHP as described elsewhere (Pacold et al., 2000). Loaded protein was then purified by gel filtration on a HiLoad Superdex-75 HR column (GE Healthcare) in 1×PBS pH7.4, 5 mM MgCl2 and concentrated for storage.
Protocol for KRas Small-Molecule Screening and Affinity Measurements by SPR
To a previously immobilized CM5 chip (GE Healthcare BR-1005-30) with anti GST antibody via amine coupling method, GST in channel 1 and GST-human KRas166 (G12V) GPPNHP in channel 2 were immobilised. GST was immobilised between 2,000 and 5,000 Response units. KRAS166 (G12V) was immobilized between 10,000 to 15,000 Response Units.
In a 96 well plate, compounds were diluted in […], 5 mM MgCl2 and 5% DMSO Buffer to a final concentration of 100 uM. DCAl was used as positive control. Experiment also included a solvent correction curve for 5% DMSO. Screening and evaluation of the protein immobilization and the compounds screening was done accordingly to the BIACORE T200 control and evaluation software.
Calculations for how many response units are required for a 1:1 ratio of compound/protein interaction are shown below. • Protein immobilisation: 10,000 RU; average fragment 300 Da in size. • Rmax=(MWA/MWL)×RL×SM • MWA is the molecular weight of the analyte in Da • MWL is the molecular weight of the ligand in Da • RL is the immobilization level in RU • SM is the molar stoichiometry (assume 1:1) • Rmax=300/47,500×10,000×1 • Rmax=63 RU. Cell Viability Assay protocols Assay 1

Point of comparison: COc1cccc(-c2cccc3c2OC(CNC(=O)C2CCOCC2)CO3)n1 (centres unmarked) [Example 45, Tetrahydro-pyran-4-carboxylic acid [8-(6-methoxy-pyridin-2-yl)-2,3-dihydro-benzo[1,4]dioxin-2-ylmethyl]-amide], “SPR Response Units” value 12 Response Units. Against it:
- COc1nc(-c2cccc3c2O[C@H](CNC(=O)c2ccc(CN4CCN(C)CC4)o2)CO3)ccc1N [Example 87, 5-(4-Methyl-piperazin-1-ylmethyl)-furan-2-carboxylic acid [(R)-8-(5-amino-6-methoxy-pyridin-2-yl)-2,3-dihydro-benzo[1,4]dioxin-2-ylmethyl]-amide] — higher, 56 Response Units
- CN1CCN(Cc2ccc(C(=O)NCC3COc4cccc(-c5ccc(NCC6CCOCC6)cn5)c4O3)o2)CC1 (centres unmarked) [Example 83, 5-(4-Methyl-piperazin-1-ylmethyl)-furan-2-carboxylic acid (8-{5-[(tetrahydro-pyran-4-ylmethyl)-amino]-pyridin-2-yl}-2,3-dihydro-benzo[1,4]dioxin-2-ylmethyl)-amide] — higher, 16 Response Units
- COc1cccc(-c2cccc3c2O[C@@H](CNC(=O)c2ccc(CN4CCN(C)CC4)o2)CO3)n1 [Example 44, 5-(4-Methyl-piperazin-1-ylmethyl)-furan-2-carboxylic acid [(S)-8-(6-methoxy-pyridin-2-yl)-2,3-dihydro-benzo[1,4]dioxin-2-ylmethyl]-amide] — higher, 42 Response Units
- COc1cc(NC(=O)[C@H]2CC[C@@H](N)CC2)cc(-c2cccc3c2OCCO3)n1 [Example 21, 4-Amino-cyclohexanecarboxylic acid [2-(2,3-dihydro-benzo[1,4]dioxin-5-yl)-6-methoxy-pyridin-4-yl]-amide] — higher, 66 Response Units
- COc1cccc(-c2cccc3c2OC(CNCC2CCN(C(=O)C4CCOCC4)CC2)CO3)n1 (centres unmarked) [Example 30, [4-({[8-(6-Methoxy-pyridin-2-yl)-2,3-dihydro-benzo[1,4]dioxin-2-ylmethyl]-amino}-methyl)-piperidin-1-yl]-(tetrahydro-pyran-4-yl)-methanone] — higher, 42 Response Units
- COc1nc(-c2cccc3c2OC(CNC(=O)C2CCOCC2)CO3)ccc1Nc1cccnc1 (centres unmarked) [Example 88, Tetrahydro-pyran-4-carboxylic acid {8-[6-methoxy-5-(pyridin-3-ylamino)-pyridin-2-yl]-2,3-dihydro-benzo[1,4]dioxin-2-ylmethyl]-amide] — higher, 161 Response Units
- COc1cccc(-c2cccc3c2OC(CN2C(=O)NC(C)(C)C2=O)CO3)n1 (centres unmarked) [Example 35, 3-[8-(6-Methoxy-pyridin-2-yl)-2,3-dihydro-benzo[1,4]dioxin-2-ylmethyl]-5,5-dimethyl-imidazolidine-2,4-dione] — higher, 33 Response Units
- CN(C)Cc1cccc(Nc2ccc(-c3cccc4c3OC(CNC(=O)C3CCOCC3)CO4)nc2)c1 (centres unmarked) [Example 93] — higher, 39 Response Units
- COc1cc(NC(=O)[C@H]2CNCCO2)cc(-c2cccc3c2OCCO3)n1 [Example 18, (R)-Morpholine-2-carboxylic acid [2-(2,3-dihydro-benzo[1,4]dioxin-5-yl)-6-methoxy-pyridin-4-yl]-amide] — higher, 71 Response Units
- COc1cc(NC(=O)N2CCN(C)CC2)cc(-c2cccc3c2OCCO3)n1 [Example 23, 4-Methyl-piperazine-1-carboxylic acid [2-(2,3-dihydro-benzo[1,4]dioxin-5-yl)-6-methoxy-pyridin-4-yl]-amide] — higher, 58 Response Units
- CN(C)Cc1cccc(C(=O)N2CCN(c3cccc4c3OCCO4)CC2)c1 [Example 156, [4-(2,3-Dihydro-benzo[1,4]dioxin-5-yl)-piperazin-1-yl]-(3-dimethylaminomethyl-phenyl)-methanone] — lower, 5 Response Units
- COc1nc(-c2cccc3c2OCCO3)ccc1NC1CCN(C)C1 (centres unmarked) [Example 86, [6-(2,3-Dihydro-benzo[1,4]dioxin-5-yl)-2-methoxy-pyridin-3-yl]-(1-methyl-pyrrolidin-3-yl)-amine] — higher, 17 Response Units
- CN1CCN(Cc2ccc(C(=O)NCC3COc4cccc(-c5ccc(OCCN6CCOCC6)cn5)c4O3)o2)CC1 (centres unmarked) [Example 107, 5-(4-methyl-piperazin-1-ylmethyl)-furan-2-carboxylic acid {8-[5-(2-morpholin-4-yl-ethoxy)-pyridin-2-yl]-2,3-dihydro-benzo[1,4]dioxin-2-ylmethyl}-amide] — lower, 9 Response Units
- COc1nc(-c2cccc3c2OC(CNC(=O)C2CCOCC2)CO3)ccc1NC(=O)CC1CCN(C)CC1 (centres unmarked) [Example 82, Tetrahydro-pyran-4-carboxylic acid (8-{6-methoxy-5-[2-(1-methyl-piperidin-4-yl)-acetylamino]-pyridin-2-yl}-2,3-dihydro-benzo[1,4]dioxin-2-ylmethyl)-amide] — the same, 12 Response Units
- COc1cc(NC(=O)N(C)C2CCN(C)CC2)cc(-c2cccc3c2OCCO3)n1 [Example 22, 3-[2-(2,3-Dihydro-benzo[1,4]dioxin-5-yl)-6-methoxy-pyridin-4-yl]-1-methyl-1-(1-methyl-piperidin-4-yl)-urea] — higher, 55 Response Units
- COc1cc(NC(=O)C2CCN(C)CC2)cc(-c2cccc3c2OCCO3)n1 [Example 4, 1-Methyl-piperidine-4-carboxylic acid [2-(2,3-dihydro-benzo[1,4]dioxin-5-yl)-6-methoxy-pyridin-4-yl]-amide] — higher, 37 Response Units
- CN(C)CCOc1ccc(C(=O)NCC2COc3cccc(-c4cc(N5CCOCC5)ccn4)c3O2)cc1 (centres unmarked) [Example 102, 4-(2-Dimethylamino-ethoxy)-N-[8-(4-morpholin-4-yl-pyridin-2-yl)-2,3-dihydro-benzo[1,4]dioxin-2-ylmethyl]-benzamide] — higher, 126 Response Units
- COc1nc(-c2cccc3c2OCCO3)ccc1Nc1ccccc1C(=O)NCC1CCN(C(=O)OC(C)(C)C)CC1 [Example 152, 4-({2-[6-(2,3-dihydro-benzo[1,4]dioxin-5-yl)-2-methoxy-pyridin-3-ylamino]-benzoylamino}-methyl)-piperidine-1-carboxylic acid tert-butyl ester] — higher, 36 Response Units
- c1ccc(CN2CCN(c3cccc4c3OCCO4)CC2)cc1 [Example 71, 1-Benzyl-4-(2,3-dihydro-benzo[1,4]dioxin-5-yl)-piperazine] — higher, 14 Response Units
- CN1CCN(Cc2ccc(C(=O)NCC3COc4cccc(-c5cn(C)cn5)c4O3)o2)CC1 (centres unmarked) [Example 137, 5-(4-Methyl-piperazin-1-ylmethyl)-furan-2-carboxylic acid [8-(1-methyl-1H-imidazol-4-yl)-2,3-dihydro-benzo[1,4]dioxin-2-ylmethyl]-amide] — higher, 50 Response Units
- COc1nc(-c2cccc3c2OC(CNC(=O)C2CCOCC2)CO3)ccc1Nc1ccc(C(=O)NCCO)cc1 (centres unmarked) [Example 89, Tetrahydro-pyran-4-carboxylic acid (8-{5-[4-(2-hydroxy-ethylcarbamoyl)-phenylamino]-6-methoxy-pyridin-2-yl}-2,3-dihydro-benzo[1,4]dioxin-2-ylmethyl)-amide] — higher, 132 Response Units
- COc1cc(N)cc(-c2cccc3c2OCCO3)n1 [Example 3, 2-(2,3-Dihydro-benzo[1,4]dioxin-5-yl)-6-methoxy-pyridin-4-ylamine] — higher, 16 Response Units
- COc1cccc(-c2cccc3c2OC(CNC(=O)CCN(C)C)CO3)n1 (centres unmarked) [Example 47, 3-Dimethylamino-N-[8-(6-methoxy-pyridin-2-yl)-2,3-dihydro-benzo[1,4]dioxin-2-ylmethyl]-propionamide] — higher, 16 Response Units
- CN1CCN(Cc2ccc(C(=O)NCC3COc4cccc(-c5ccn[nH]5)c4O3)o2)CC1 (centres unmarked) [Example 42, 5-(4-Methyl-piperazin-1-ylmethyl)-furan-2-carboxylic acid [8-(2H-pyrazol-3-yl)-2,3-dihydro-benzo[1,4]dioxin-2-ylmethyl]-amide] — higher, 62 Response Units
- COc1nc(-c2cccc3c2OCCO3)ccc1NC1CCN(C)CC1 [Example 98, [6-(2,3-Dihydro-benzo[1,4]dioxin-5-yl)-2-methoxy-pyridin-3-yl]-(1-methyl-piperidin-4-yl)-amine] — higher, 21 Response Units
